Measurements from patent publication US20120083464A1, “NEUROPROTECTIVE PROPERTIES OF 5'-METHYLTHIOADENOSINE” (priority 2009, published 2012).
Entries after “also recorded” stand apart in the source; their conditions may differ.

Columns and labels:
[1] = test system: rats after focal ischemia (MCAO); type: in vivo
[2] = test system: hippocampal neurons after pilocarpine-induced status epilepticus; assay: Pilocarpine model of temporal lobe epilepsy (status epilepticus), hippocampal histology; type: in vivo, Sprague-Dawley rats; settings: for quantification of cells in area CA1 at 30 days after SE: preliminary
Excerpt: We compared two MTA treatment regimens to examine its neuroprotective effect on pilocarpine-induced SE in adult rats. One regimen involved 5 days of MTA treatment beginning beginning 2 days before SE (pre-SE MTA). The other regimen, a more clinically relevant protocol, consisted of MTA treatment for 3 days beginning at the termination of SE (post-SE MTA).
Young adult (175-200 g), male Sprage-Dawley rats were divided into four MTA treatment groups, 9-11 rats per group. In group A, rats were subjected to pilocarpine-induced status epilepticus (SE). Following 90 minutes of continuous seizure activity, SE was stopped by a single administration of diazepam (10 mg/kg). The rats were injected either with vehicle or MTA once daily for 3 days. Rats were sacrificed at day 4 after SE, and their brains perfusion fixed, frozen and sectioned for histology. In group B, treatment of rats was the same as Group A except that the rats were sacrificed at day 30 after SE. In group C, rats were treated with MTA once daily for two days. On the third day, rats underwent pilocarpine-induced SE. The rats were continuously treated with MTA once daily for 3 more days; controls received placebo The rats were then anesthetized and sacrificed day 4 after SE. In group D, rats were treated the same way as Group C except that the rats were sacrificed on 30 days after SE.
The sections were subjected to cresyl violet (Nissl) staining and NeuN immunostaining to examine cell loss. Timm staining to identify mossy fiber sprouting was performed on the 30-day survival group.

[3] = test system: dopaminergic neurons (TH+ cells) in the substantia nigra; assay: MPTP mice model of Parkinson disease, TH immunohistochemistry; type: in vivo, C57B1 mice
Description: Male C57B1 mice, with a body ranging in weight from 23 to 31 g were used in this study. MPTP (Sigma) dissolved in 0.9% NaCl was injected intraperitonealy at a dose of 30 mg/kg for 5 days. MTA was dissolved in purified water with 2% of DMSO at a final concentration of 6 mg/ml and was injected intraperitonealy at a dose of […] or 192 μmol/Kg. The first day of the experiment MTA was injected 24 hours before the MPTP injection and during the following four days administration of MTA was 1 hour before the administration of MPTP. Mice were divided in four groups: (1) MPTP (n=6); (2) MPTP plus 96 μmol/Kg MTA (n=6); (3) MPTP plus 192 μmol/Kg MTA (n=9) and (4) Control group (n=2).
At the end of the experiment, animals were anesthetized with an overdose of 10% chloral hydrate in distilled water and then transcardially perfused with saline Ringer's solution followed by 100 ml of a cold fixative solution containing 4% paraformaldehyde and 0.4% glutaraldehyde in 0.125 M PB, pH 7.4. After perfusion, the skull was opened and the brain removed was post-fixed overnight at 4° C. in the same fixative solution and next stored in a cryoprotective solution containing 20% glycerine and 2% dimethylsulphoxide in 0.125 M PB, pH 7.4. Frozen coronal microtome sections (50 μm-thick) were obtained and collected in 0.125 M PB, pH 7.4, in 6 series of adjacent sections. Sections were stored at −80° C. until further processing.
With a random start, every third sections through the entire SN were sampled. The sections were processed free-floating. Endogenous peroxidase activity was removed by incubating the sections in methanol with 1.25% H2O2 for 40 min. […] Histological quantification was done using the CAST system from Olympus using the BX50 microscope and following the methods described by Oorschot (J Comp Neurol 366:580-599, 1996). […] Neurons were counted using the optic dissector every 3 sections at 150 μm distance and at ×400. […]

RN22 cells = assay: Copper sulphate stress in RN22 cells, ROS levels; type: cell-based, rat; settings: copper sulphate 150 μM, different time periods
Description: RN22 cells were maintained at 37° C. in DMEM medium supplemented with 10% of fetal bovine serum and penicillin/streptomycine. The assays against stress with copper sulphate were conducted using 24-well plates in DMEM medium without serum. After allowing cell adherence for three days, NGF (100 ng/ml) or MTA was added to different concentrations half an hour before the copper sulphate (150 μM). After twenty-four hours, cell viability was quantified by MTT assay and ROS production was quantified by fluorescence. Assays against stress with hydrogen peroxide were conducted in the same way as the foregoing, using 100 μM hydrogen peroxide as a stress-producing agent.
We determined the quantity of ROS produced by the cells after stress with and without treatment. 2′,7′- dichlorodihydrofluorescein (DCFH) is generally used to measure oxidative stress in cells. The cells were incubated with DCFH-DA (10 μM) at 37° C. for thirty minutes. After incubation, the cells were washed twice with PBS and lysed by adding 10 mM Tris-HCL buffer containing 0.5% of Tween 20. The homogenates were then centrifuged at 10,000 g for ten minutes to separate the cell residue and […] fluorescence in the supernatant was measured using a fluorometer (excitation wavelength 492-495 nm, emission wavelength 517-527 nm) (Invitrogen).

SMILES: CSC[C@H]1O[C@@H](n2cnc3c(N)ncnc32)[C@H](O)[C@@H]1O [MTA, 5′-methylthioadenosine]
- damaged area (TTC staining) versus vehicle ([1]; MTA 30 mg/kg i.p. twice daily from 30 min after onset of ischemia, 3 days of reperfusion): did not show a reduction; also recorded: does not protect
- toxicity to rats after ischemia ([1]; MTA 100 mg/kg i.p. twice daily): toxic
- hippocampal neuronal loss, qualitative (Nissl stain, NeuN immunohistochemistry) ([2]; MTA started before or after SE, early and late timepoints, dentate hilus, CA1, CA3): qualitatively reduced neuronal loss; also recorded: qualitatively more Nissl-stained cells
- mossy fiber sprouting (Timm stain) ([2]; late timepoint, either MTA group): No qualitative difference
- quantification of cells in area CA1 at 30 days after SE ([2]; post-SE MTA group, p=0.057): trend toward neuroprotection; also recorded: non-significant trend toward increased cell numbers
- hippocampal NeuN immunoreactivity at 30 days after SE (representative example) ([2]; post-SE MTA, dentate gyrus): only mild cell loss
- quantification of cells in area CA1 at 30 days after SE ([2]; pre-SE MTA group, p=0.02): significant neuroprotective effects
- hippocampal NeuN immunoreactivity at 30 days after SE (representative example) ([2]; pre-SE MTA, dentate gyrus and pyramidal cell layer): good preservation of neurons
- reduction in the number of TH (dopaminergic) neurons compared to controls ([3]; MPTP 30 mg/kg for 5 days plus MTA 96 μM/day (so in the source)): 10%
- higher number of dopaminergic neurons than MPTP treated animals ([3]; MPTP plus MTA 96 μM/day (so in the source)): 30%
- number of TH neurons versus MPTP animals ([3]; MPTP plus MTA (96 μM as printed)): significantly higher number of TH neurons
- ROS production under copper sulphate stress (RN22 cells): reduce ROS production
